# Columns and labels:
# [1] = tested on: S. cerevisiae EG118 (sod1Δ); test: Yeast survival assay, EG118 (sod1Δ); format: cell-based, Saccharomyces cerevisiae; conditions: for survival (percentage in relation to negative control): STAT cells, 1 h in PBS 30°C
# Experimental: Media, solutions and buffers were prepared according to Burke et al.. YPD medium (0.5% yeast extract, 2% peptone, 2% glucose) was used for routine growth. Synthetic medium SC (0.67% yeast nitrogen base, 0.1% ammonium sulfate, 2% glucose) supplemented with the appropriate amino acids and bases ([…]) was used for the detection of mutations.
# Stationary phase (STAT) cultures were obtained by inoculation of a single colony into liquid YPD. We chose to work in the stationary phase of growth because this resembles most cells of multicellular organisms in important aspects: (i) most energy comes from mitochondrial respiration; (ii) the cells have left the active cell cycle and have entered the Go phase; and (iii) damage accumulates over time.
# STAT cells (1 × 10^8 cells/mL) were exposed to TTHL (10–500 μg/mL) and incubated under growth conditions for 1 h in PBS at 30°C. Cells were then washed and treated with H2O2 (5 mM) in PBS for another hour. Suitable aliquots were plated in triplicate on solid YPD (2–3 days, 30°C) and colony-forming units were counted. Sensitivity was expressed as a percentage of survival in relation to the negative control (solvent).
# [2] = tested on: HCT116 cell (colorectal carcinoma); test: XTT cell viability assay, HCT116; format: cell-based, human; conditions: for IC50: Homo sapiens, HCT-116, XTT
# Experimental: (§1) The human cell lines MCF-7 (breast adenocarcinoma), HepG2 (hepatoma), T24 (bladder cancer), CACO-2 (colorectal adenocarcinoma) and MRC5 (lung normal fibroblast) were obtained from the Rio de Janeiro Cell Bank (Rio de Janeiro, RJ, Brazil). The HCT116 cell (colorectal carcinoma), and HT29 cell (colorectal adenocarcinoma) were kindly provided by Dr. Annette K. Larsen (Institut National de la Santé et de la Recherche Médicale - INSERM, Paris, França). All cell lines except MCF-7 were grown in DMEM supplemented with 10% or 20% (for CACO-2) FBS, 100 units.mL^-1 penicillin and 100 μg.mL^-1 streptomycin at 37°C in a humidified atmosphere of 5% CO2. MCF-7 cells were maintained in RPMI-1640 supplemented with 20% FBS at the same conditions described above.
# (§2) The cytotoxic potential of the TTHL was evaluated by the XTT assay in human tumor cell lines as well as in MRC5 normal fibroblasts. Cells (1 × 10^4 cells) were seeded on 96-well plates in growth medium and incubated overnight. Afterwards, TTHL (0.5, 1.0, 2.5, 5.0, and 10 μg/mL) was added to each well and incubated for 24, 48, 72, and 120 h. Mitoxantrone, a cytostatic anthracenedione that intercalates in DNA and increases the incidence of double-strand breaks by stabilizing the cleavable complex of topoisomerase II and DNA, was used as positive control. At the end of each treatment, cell viability was assessed according to the manufacturer’s instructions. Briefly, after discarding the medium, 1 mL of XTT labeling mixture was added to the cells and incubated for 2 h at 37°C. Absorbance was measured with a SpectraMax reader (Bio-Rad, USA) at a test wavelength of 492 nm (A492) and a reference wavelength of 690 nm (A690). The final result corresponds to A492-A690. The absorbance of negative control cells was set as 100% viability, and the values for treated cells were calculated as a percentage of the control.
# (§3) The IC20, IC50, and IC80 values and their 95% confidence intervals (CI 95%) were obtained by nonlinear regression using GraphPad Prism v5 program (Intuitive Software for Science, San Diego, CA, USA). Selective index (SI) was calculated by IC50 in MRC5 cells/IC50 in tumoral cells. All experiments were independently repeated at least three times, with triplicate samples for each treatment. Results are expressed as means ± standard deviation (SD). Data were analyzed by one-way analysis of variance (ANOVA), and means were compared using Tukey test, with P ≤ 0.05 considered as statistically significant.
# [3] = tested on: HepG2 (hepatoma); test: XTT cell viability assay, HepG2; format: cell-based, human; conditions: for IC50: Homo sapiens, XTT
# Experimental: as §1, §2, §3
# [4] = tested on: HT29 cell (colorectal adenocarcinoma); test: XTT cell viability assay, HT29; format: cell-based, human; conditions: for IC50: Homo sapiens, HT-29, XTT
# Experimental: as §1, §2, §3
# [5] = tested on: T24 (bladder cancer); test: XTT cell viability assay, T24; format: cell-based, human; conditions: for IC50: Homo sapiens, XTT
# Experimental: as §1, §2, §3
compound,measurement,setting,value
"C=C(C)[C@@H]1CC[C@@]2(C)[C@H]1[C@H]1CC[C@@H]3[C@@]4(C)CC[C@H](O)C(C)(C)[C@@H]4[C@H](O)C[C@@]3(C)[C@]1(C)C[C@@H]2O [TTHL, 3β,6β,16β-trihydroxy-lup-20(29)-ene]",survival (percentage in relation to negative control),[1]; TTHL 10 μg/mL,92.60 ± 2.83%
same,survival (percentage in relation to negative control),[1]; TTHL 50 μg/mL,89.30 ± 0.85 %
same,survival (percentage in relation to negative control),[1]; TTHL 100 μg/mL,75.65 ± 4.60 %
same,survival (percentage in relation to negative control),[1]; TTHL 500 μg/mL,69.30 ± 3.68 %
same,sensitivity of the strain to TTHL (in words),[1]; deficient in superoxide dismutase,hypersensitive
same,IC50,"[2]; HCT116, 24 h treatment",7.05 ± 0.21 µg/mL
same,IC50,"[2]; HCT116, 48 h treatment",5.87 ± 0.04 µg/mL
same,IC50,"[2]; HCT116, 72 h treatment",5.2 ± 0.28 µg/mL
same,IC50,"[2]; HCT116, 120 h treatment",4.5 ± 0.29 µg/mL
same,Selectivity index (SI),"[2]; IC50 in MRC5 cells/IC50 in HCT116, 24 h",1 X
same,Selectivity index (SI),"[2]; IC50 in MRC5 cells/IC50 in HCT116, 48 h",1 X
same,Selectivity index (SI),"[2]; IC50 in MRC5 cells/IC50 in HCT116, 72 h",1 X
same,Selectivity index (SI),"[2]; IC50 in MRC5 cells/IC50 in HCT116, 120 h",1.5 X
same,IC50,"[3]; HepG2, 24 h treatment",6.5 ± 0.43 µg/mL
same,IC50,"[3]; HepG2, 48 h treatment",6.1 ± 0.28 µg/mL
same,IC50,"[3]; HepG2, 72 h treatment",5.45 ± 0.35 µg/mL
same,IC50,"[3]; HepG2, 120 h treatment",0.88 ± 0.13 µg/mL
same,Selectivity index (SI),"[3]; IC50 in MRC5 cells/IC50 in HepG2, 24 h",1.3 X
same,Selectivity index (SI),"[3]; IC50 in MRC5 cells/IC50 in HepG2, 48 h",1 X
same,Selectivity index (SI),"[3]; IC50 in MRC5 cells/IC50 in HepG2, 72 h",1 X
same,Selectivity index (SI),"[3]; IC50 in MRC5 cells/IC50 in HepG2, 120 h",8 X
same,IC50,"[4]; HT29, 24 h treatment",8 ± 0.14 µg/mL
same,IC50,"[4]; HT29, 48 h treatment",7 ± 0.42 µg/mL
same,IC50,"[4]; HT29, 72 h treatment",6.15 ± 0.21 µg/mL
same,IC50,"[4]; HT29, 120 h treatment",5.3 ± 0.28 µg/mL
same,Selectivity index (SI),"[4]; IC50 in MRC5 cells/IC50 in HT29, 24 h",1 X
same,Selectivity index (SI),"[4]; IC50 in MRC5 cells/IC50 in HT29, 48 h",1 X
same,Selectivity index (SI),"[4]; IC50 in MRC5 cells/IC50 in HT29, 72 h",1 X
same,Selectivity index (SI),"[4]; IC50 in MRC5 cells/IC50 in HT29, 120 h",1 X
same,IC50,"[5]; T24, 24 h treatment",5.55 ± 0.64 µg/mL
same,IC50,"[5]; T24, 48 h treatment",5.2 ± 0.42 µg/mL
same,IC50,"[5]; T24, 72 h treatment",1.09 ± 0.14 µg/mL
same,IC50,"[5]; T24, 120 h treatment",0.39 ± 0.1 µg/mL
same,Selectivity index (SI),"[5]; IC50 in MRC5 cells/IC50 in T24, 24 h",1.5 X
same,Selectivity index (SI),"[5]; IC50 in MRC5 cells/IC50 in T24, 48 h",1.5 X
same,Selectivity index (SI),"[5]; IC50 in MRC5 cells/IC50 in T24, 72 h",7 X
same,Selectivity index (SI),"[5]; IC50 in MRC5 cells/IC50 in T24, 120 h",17 X
